Structures can show the parent of a compound that is named as a salt.
Tested on: Interferon-α
Test: Induction of Interferon-α using cryopreserved human PBMCs
Format: cell-based
Settings: PBMC, 24 h incubation, normalised to 1 uM resiquimod, read-out: mean pEC50 for induction of IFN-α (converted)
Description: Assay for the Induction of Interferon-α Using Cryopreserved Human Peripheral Blood Mononuclear Cells (PBMCs)
Compounds were dissolved in DMSO. Serial 2-fold dilutions with DMSO were prepared and 0.25 μl dispensed into 384-well clear Greiner polypropylene plates.
Blood samples of up to 200 ml were obtained from healthy human donors. Whole blood in 25 ml volumes was overlaid onto 15 ml Ficoll gradients in Leucosep tubes, and centrifuged at 1000 g for 20 min. Cells in the band at the plasma/histopaque interface were carefully removed and washed twice with PBS (centrifuged at 400 g for 5 min to harvest). The final pellet was resuspended in freezing medium (90% Heat-inactivated serum, 10% DMSO) to a cell concentration of 4×10^7 cells/ml. The resuspended cells were then cryopreserved (frozen) using a rate controlled freezer, and stored at −140° C. for up to 4 months.
Immediately prior to assay, vials of cryopreserved (frozen) PBMCs were thawed rapidly in a water bath at 37° C. A 1:10 dilution of the cells in trypan blue was prepared and counted. The PBMCs were then diluted in growth media [RPMI 1640 containing 10% fetal calf serum (invitrogen), Penicillin+[…] (Gibco cat. #25030-024, 1:50), L-Glutamine 2 mM, and 1000 units/ml recombinant human IFN-gamma (Preprotech catalogue #300-02)] to a density of 1×10^6 cells/ml, and 50 ul/well dispensed to 384-well clear Greiner polypropylene plates containing 0.25 μl DMSO or test compound in 0.25 μl DMSO. […] Plates were incubated for 24 h at 37° C. in 5% CO2.
A multi-isoform immunoassay was used to quantify IFN-α in PBMC supernatants. Rabbit polyclonal antibody against human IFN-α (catalogue number 31101, Stratech Scientific) was diluted 1:10000 in assay buffer (RPMI 1640 containing 10% fetal calf serum, Invitrogen) and 20 μl was added to each well of an MSD (Meso-Scale Discovery) single small-spot 384-well GAR (goat anti-rabbit antibody coated) plate. The plate was incubated for 1 hour at room temperature with vigorous shaking. Following three washes with PBS, 20 μl of cell supernatant were added to each well of the plate. The plate was then incubated for 1 hour at room temperature with vigorous shaking. A pair of monoclonal antibodies to IFN-α (catalogue numbers 21100 and 21112, Stratech Scientific) were labelled with sulfo-TAG (MSD), diluted 1:1000 in assay buffer and 20 μl added to each well of the plate. The plate was further incubated for 1 hour at room temperature with vigorous shaking. Following three washes with PBS, 30 μl of x2 T buffer (MSD) was added to each well and the plate was read on an MSD Sector 6000 plate reader.
Data were normalised to internal plate controls of 1 uM resiquimod (n=16) and DMSO (n=16). pEC50 values were derived by 4-parameter curve fit with IRLS in ActivityBase, from 11-point, two-fold serial dilution of test compounds.

Row | Compound | EC50 [nM]
1 | CCC[C@H](C)Oc1nc(N)c2[nH]c(=O)n(CCCC3CCN(CC)CC3)c2n1 [Example 105, 6-Amino-9-[3-(1-ethyl-4-piperidinyl)propyl]-2-{[(1S)-1-methylbutyl]oxy}-7,9-dihydro-8H-purin-8-one] | < 1580
2 | CCCCOc1nc(N)c2[nH]c(=O)n(CCC3CCNCC3)c2n1 [Example 6, hydrochloride] | < 1580
3 | CCCCOc1nc(N)c2[nH]c(=O)n(CC3CCNCC3)c2n1 [Example 3, hydrochloride] | < 1580
4 | CCCCOc1nc(N)c2[nH]c(=O)n(CCCC3CCCN(CC4CCCC4)C3)c2n1 (stereo not drawn) [Example 51, 6-Amino-2-(butyloxy)-9-{3-[1-(cyclopentylmethyl)-3-piperidinyl]propyl}-7,9-dihydro-8H-purin-8-one hydrochloride] | < 1580
5 | CCCCOc1nc(N)c2[nH]c(=O)n(CCCCCC3CCN(CC(C)C)CC3)c2n1 [Example 127, 6-Amino-2-(butyloxy)-9-{5-[1-(2-methylpropyl)-4-piperidinyl]pentyl}-7,9-dihydro-8H-purin-8-one hydrochloride] | < 1580
6 | CCCCOc1nc(N)c2[nH]c(=O)n(CCCC3CCCN(C(C)C)C3)c2n1 (stereo not drawn) [Example 46, 6-Amino-2-(butyloxy)-9-{3-[1-(1-methylethyl)-3-piperidinyl]propyl}-7,9-dihydro-8H-purin-8-one] | < 1580
7 | CCCCOc1nc(N)c2[nH]c(=O)n(CCCC3CCN(CC(C)C)CC3)c2n1 [Example 97, 6-Amino-2-(butyloxy)-9-{3-[1-(2-methylpropyl)-4-piperidinyl]propyl}-7,9-dihydro-8H-purin-8-one] | < 1580
8 | CCCCOc1nc(N)c2[nH]c(=O)n(CCCCC3CCN(C4CCCCC4)CC3)c2n1 [Example 116, 6-Amino-2-(butyloxy)-9-[4-(1-cyclohexyl-4-piperidinyl)butyl]-7,9-dihydro-8H-purin-8-one] | < 1580
9 | CCCCOc1nc(N)c2[nH]c(=O)n(CCC3CCN(C(CC)CC)CC3)c2n1 [Example 84, 6-Amino-2-(butyloxy)-9-{2-[1-(1-ethylpropyl)-4-piperidinyl]ethyl}-7,9-dihydro-8H-purin-8-one] | < 1580
10 | CCCCOc1nc(N)c2[nH]c(=O)n(CCCC3CCN(C4CCCC4)CC3)c2n1 [Example 100, 6-Amino-2-(butyloxy)-9-[3-(1-cyclopentyl-4-piperidinyl)propyl]-7,9-dihydro-8H-purin-8-one] | < 1580
11 | CCCCOc1nc(N)c2[nH]c(=O)n(CCCCCC3CCN(C4CCCC4)CC3)c2n1 [Example 129, 6-Amino-2-(butyloxy)-9-[5-(1-cyclopentyl-4-piperidinyl)pentyl]-7,9-dihydro-8H-purin-8-one] | < 1580
12 | CCCCOc1nc(N)c2[nH]c(=O)n(CCC3CCN(CCC(C)C)CC3)c2n1 [Example 85, 6-Amino-2-(butyloxy)-9-{2-[1-(3-methylbutyl)-4-piperidinyl]ethyl}-7,9-dihydro-8H-purin-8-one] | < 1580
13 | CCCCOc1nc(N)c2[nH]c(=O)n(CCCCC3CCCN(CCC)C3)c2n1 (stereo not drawn) [Example 57, 6-Amino-2-(butyloxy)-9-[4-(1-propyl-3-piperidinyl)butyl]-7,9-dihydro-8H-purin-8-one] | < 1580
14 | CCCCOc1nc(N)c2[nH]c(=O)n(CCCC3CCCCN3CCC3CCCCC3)c2n1 (stereo not drawn) [Example 22, 6-Amino-2-(butyloxy)-9-{3-[1-(2-cyclohexylethyl)-2-piperidinyl]propyl}-7,9-dihydro-8H-purin-8-one] | < 1580
15 | CCCCOc1nc(N)c2[nH]c(=O)n(CCCC3CCNCC3)c2n1 [Example 93, 6-Amino-2-(butyloxy)-9-[3-(4-piperidinyl)propyl]-7,9-dihydro-8H-purin-8-one] | < 1580
16 | CCCCOc1nc(N)c2[nH]c(=O)n(CCCC3CCCCN3C(C)C)c2n1 (stereo not drawn) [Example 16, 6-Amino-2-(butyloxy)-9-{3-[1-(1-methylethyl)-2-piperidinyl]propyl}-7,9-dihydro-8H-purin-8-one] | < 1580
17 | CCCCOc1nc(N)c2[nH]c(=O)n(CCCCC3CCN(CC4CCCC4)CC3)c2n1 [Example 115, 6-Amino-2-(butyloxy)-9-{4-[1-(cyclopentylmethyl)-4-piperidinyl]butyl}-7,9-dihydro-8H-purin-8-one] | < 1580

Row | Compound | EC50 [nM]
18 | CCCCNc1nc(N)c2[nH]c(=O)n(CC3CCCN(CC)C3)c2n1 (stereo not drawn) [Example 2, 6-Amino-2-(butylamino)-9-[(1-ethyl-3-piperidinyl)methyl]-7,9-dihydro-8H-purin-8-one] | < 1580
19 | CCC[C@H](C)Oc1nc(N)c2[nH]c(=O)n(CC3CCN(C(C)C)CC3)c2n1 [Example 79, 6-Amino-2-{[(1S)-1-methylbutyl]oxy}-9-{[1-(1-methylethyl)-4-piperidinyl]methyl}-7,9-dihydro-8H-purin-8-one] | < 1580
20 | CCCCOc1nc(N)c2[nH]c(=O)n(CCCC3CCN(CC4CCCC4)CC3)c2n1 [Example 101, 6-Amino-2-(butyloxy)-9-{3-[1-(cyclopentylmethyl)-4-piperidinyl]propyl}-7,9-dihydro-8H-purin-8-one] | < 1580
21 | CCCCOc1nc(N)c2[nH]c(=O)n(CCCC3CCCN(CC(C)C)C3)c2n1 (stereo not drawn) [Example 48, 6-Amino-2-(butyloxy)-9-{3-[1-(2-methylpropyl)-3-piperidinyl]propyl}-7,9-dihydro-8H-purin-8-one hydrochloride] | < 1580
22 | CCCCOc1nc(N)c2[nH]c(=O)n(CCCC3CCCN(CCC(C)C)C3)c2n1 (stereo not drawn) [Example 49, 6-Amino-2-(butyloxy)-9-{3-[1-(3-methylbutyl)-3-piperidinyl]propyl}-7,9-dihydro-8H-purin-8-one] | < 1580
23 | CCCCOc1nc(N)c2[nH]c(=O)n(CCC3CCCCN3)c2n1 (stereo not drawn) [Example 11, 6-Amino-2-(butyloxy)-9-[2-(2-piperidinyl)ethyl]-7,9-dihydro-8H-burin-8-one] | < 1580
24 | CCCCOc1nc(N)c2[nH]c(=O)n(CCC3CCN(CCC)CC3)c2n1 [Example 80, 6-Amino-2-(butyloxy)-9-[2-(1-propyl-4-piperidinyl)ethyl]-7,9-dihydro-8H-purin-8-one] | < 1580
25 | CCCCOc1nc(N)c2[nH]c(=O)n(CCC3CCN(CC4CCCC4)CC3)c2n1 [Example 87, 6-Amino-2-(butyloxy)-9-{2-[1-(cyclopentylmethyl)-4-piperidinyl]ethyl}-7,9-dihydro-8H-purin-8-one] | < 1580
26 | CCC[C@H](C)Oc1nc(N)c2[nH]c(=O)n(CCCCC3CCCNC3)c2n1 (stereo partly drawn) [Example 65, 6-Amino-2-{[(1S)-1-methylbutyl]oxy}-9-[4-(3-piperidinyl)butyl]-7,9-dihydro-8H-purin-8-one] | < 1580
27 | CCCCOc1nc(N)c2[nH]c(=O)n(CCCCCCC3CCN(CC)CC3)c2n1 [Example 133, 6-Amino-2-(butyloxy)-9-[6-(1-ethyl-4-piperidinyl)hexyl]-7,9-dihydro-8H-purin-8-one] | < 1580
28 | CCCCOc1nc(N)c2[nH]c(=O)n(CCCCC3CCN(C(CC)CC)CC3)c2n1 [Example 112, 6-Amino-2-(butyloxy)-9-{4-[1-(1-ethylpropyl)-4-piperidinyl]butyl}-7,9-dihydro-8H-purin-8-one] | < 1580
29 | CCCCOc1nc(N)c2[nH]c(=O)n(CCCCC3CCN(CCC(C)C)CC3)c2n1 [Example 113, 6-Amino-2-(butyloxy)-9-{4-[1-(3-methylbutyl)-4-piperidinyl]butyl}-7,9-dihydro-8H-purin-8-one] | < 1580
30 | CCCCOc1nc(N)c2[nH]c(=O)n(CCCCCC3CCN(CC)CC3)c2n1 [Example 123, 6-Amino-2-(butyloxy)-9-[5-(1-ethyl-4-piperidinyl)pentyl]-7,9-dihydro-8H-purin-8-one] | < 1580
31 | CCCCOc1nc(N)c2[nH]c(=O)n(CCCCCC3CCN(C(C)C)CC3)c2n1 [Example 125, 6-Amino-2-(butyloxy)-9-{5-[1-(1-methylethyl)-4-piperidinyl]pentyl}-7,9-dihydro-8H-purin-8-one] | < 1580
32 | CCCCOc1nc(N)c2[nH]c(=O)n(CCCCCC3CCCN(CC)C3)c2n1 (stereo not drawn) [Example 68, 6-Amino-2-(butyloxy)-9-[5-(1-ethyl-3-piperidinyl)pentyl]-7,9-dihydro-8H-purin-8-one] | < 1580
33 | CCCCOc1nc(N)c2[nH]c(=O)n(CCCCCC3CCCNC3)c2n1 (stereo not drawn) [Example 67, 6-Amino-2-(butyloxy)-9-[5-(3-piperidinyl)pentyl]-7,9-dihydro-8H-purin-8-one] | < 1580

Source: patent publication US8563717B2, “Adenine derivatives” (GlaxoSmithKline LLC, priority 2008, dated 2013)
